Active and inactive are the calls of the source. The rule behind the calls is not given here.
Experiments:
[1] = target: T1, Protein cereblon/Tyrosine-protein kinase BTK (Mus musculus) (UniProt P35991+Q8C7D2); assay: In vivo protac activity at CRBN/BTK in BALB/c mouse assessed as residual BTK protein in blood at 10 mg/kg,po administration measured after 24 hrs by flow cytomtery relative to control
[2] = target: T1, Protein cereblon/Tyrosine-protein kinase BTK (Mus musculus); assay: In vivo protac activity at CRBN/BTK in BALB/c mouse assessed as residual BTK protein in blood at 30 mg/kg,po administration measured after 24 hrs by flow cytomtery relative to control
Cytochrome P450 3A4 = Cytochrome P450 3A4 (Homo sapiens, UniProt P08684); assay: Time dependent inhibition of CYP3A4 (unknown origin); format: ADME
Chain of Cytochrome P450 3A4 (P08684 whole entry): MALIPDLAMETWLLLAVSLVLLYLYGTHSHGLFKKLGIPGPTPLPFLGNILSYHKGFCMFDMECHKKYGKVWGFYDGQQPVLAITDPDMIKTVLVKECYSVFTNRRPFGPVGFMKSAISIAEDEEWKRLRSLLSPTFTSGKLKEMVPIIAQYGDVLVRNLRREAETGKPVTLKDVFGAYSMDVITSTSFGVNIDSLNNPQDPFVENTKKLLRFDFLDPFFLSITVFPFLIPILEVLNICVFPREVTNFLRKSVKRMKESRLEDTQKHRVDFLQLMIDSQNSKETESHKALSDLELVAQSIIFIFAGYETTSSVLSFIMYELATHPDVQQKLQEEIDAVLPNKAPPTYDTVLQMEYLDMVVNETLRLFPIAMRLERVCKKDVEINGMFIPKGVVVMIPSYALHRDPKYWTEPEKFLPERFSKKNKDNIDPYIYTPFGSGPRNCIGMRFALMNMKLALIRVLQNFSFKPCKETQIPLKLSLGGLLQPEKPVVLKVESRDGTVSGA

TMD8 [3] = assay: Antitumor activity against human TMD8 cells expressing BTK C481S mutant xenografted in CB17-SCID mouse assessed as tumor growth inhibition at 90 mg/kg,po administration for 25 days; format: functional; conditions: TMD8, 600 h, time 25 day, read-out: TGI
[4] = Drug uptake in cynomolgus monkey plasma at po administration measured for 24 hrs; format: ADME, organism-based, Macaca fascicularis; conditions: in vivo
[5] = tested on: Protein cereblon/Tyrosine-protein kinase BTK (Homo sapiens); assay: In vivo protac activity at CRBN/BTK in CB17-SCID mouse xenografted with human TMD8 cells assessed as degradation of BTK protein in tumor at 10 to 90 mg/kg,po administration for 25 days by flow cytomtery; conditions: dose 10-90 mg/kg, time 25.0 day
[6] = target: T2, Protein cereblon-BTK (Macaca fascicularis) (UniProt A0A2K5UTB3+A0A7N9IGT8); assay: In vivo protac activity at CRBN/BTK in cynomolgus monkey assessed as remaining BTK protein at 10 mg/kg,po administration measured after 24 hrs by flow cytomtery relative to control; format: functional, organism-based
T2 sequence (A0A2K5UTB3 1-488): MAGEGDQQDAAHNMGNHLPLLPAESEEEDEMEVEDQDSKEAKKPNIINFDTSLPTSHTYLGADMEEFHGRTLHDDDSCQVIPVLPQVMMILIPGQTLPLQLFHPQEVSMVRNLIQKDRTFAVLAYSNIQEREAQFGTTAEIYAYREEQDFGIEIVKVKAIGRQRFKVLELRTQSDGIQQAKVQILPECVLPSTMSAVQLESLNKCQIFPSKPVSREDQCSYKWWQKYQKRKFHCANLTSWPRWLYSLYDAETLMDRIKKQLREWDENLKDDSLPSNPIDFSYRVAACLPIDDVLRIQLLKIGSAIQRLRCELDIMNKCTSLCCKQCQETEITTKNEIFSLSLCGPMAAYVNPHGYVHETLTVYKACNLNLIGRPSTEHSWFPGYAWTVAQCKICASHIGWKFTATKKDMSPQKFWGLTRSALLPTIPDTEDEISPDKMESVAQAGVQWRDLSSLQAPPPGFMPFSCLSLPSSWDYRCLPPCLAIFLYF
T2 sequence (A0A7N9IGT8 entry or part of it partner): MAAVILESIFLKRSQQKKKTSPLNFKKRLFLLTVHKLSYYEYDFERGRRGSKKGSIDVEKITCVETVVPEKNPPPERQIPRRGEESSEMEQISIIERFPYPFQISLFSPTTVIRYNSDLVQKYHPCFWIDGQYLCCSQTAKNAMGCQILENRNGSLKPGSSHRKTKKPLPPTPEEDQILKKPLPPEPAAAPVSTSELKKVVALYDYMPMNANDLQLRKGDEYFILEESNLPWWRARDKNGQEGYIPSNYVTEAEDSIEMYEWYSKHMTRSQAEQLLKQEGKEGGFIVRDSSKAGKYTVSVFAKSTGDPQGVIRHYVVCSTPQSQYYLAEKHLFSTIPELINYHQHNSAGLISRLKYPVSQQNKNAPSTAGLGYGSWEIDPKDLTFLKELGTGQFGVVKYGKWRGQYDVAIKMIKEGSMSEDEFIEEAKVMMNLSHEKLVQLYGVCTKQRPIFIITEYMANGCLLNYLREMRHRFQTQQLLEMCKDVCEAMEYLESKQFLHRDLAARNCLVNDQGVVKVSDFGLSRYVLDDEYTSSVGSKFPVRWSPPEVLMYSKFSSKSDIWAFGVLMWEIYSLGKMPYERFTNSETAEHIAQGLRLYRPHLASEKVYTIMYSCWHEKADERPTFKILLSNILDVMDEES

[7] = Plasma protein binding in rat; format: ADME, cell-free; conditions: read-out: PPB
[8] = Cmax in cynomolgus monkey at 10 mg/kg,po administration for 14 days; format: ADME, organism-based, Macaca fascicularis; design: dose 10 mg/kg, time 14 day, route po; conditions: in vivo
TMD8 [9] = assay: Antitumor activity against human TMD8 cells expressing wild type BTK xenografted in CB17-SCID mouse assessed as tumor growth inhibition at 30 mg/kg,po administration for 25 days; format: functional; conditions: TMD8, 600 h, time 25 day, read-out: TGI
[10] = Cmax in cynomolgus monkey at 10 mg/kg,po; format: ADME, organism-based, Macaca fascicularis; design: dose 10 mg/kg, route po; conditions: in vivo
[11] = target: Protein cereblon-BTK (Canis lupus familiaris) (UniProt A0A8I3NIQ5+A0A8I3P7Z3); assay: In vivo protac activity at CRBN/BTK in Beagle dog assessed as remaining BTK protein at 10 mg/kg,po administration measured after 24 hrs by flow cytomtery relative to control; format: functional, organism-based
[12] = Plasma protein binding in cynomolgus monkey; format: ADME, cell-free, Macaca fascicularis; conditions: read-out: PPB (converted)
[13] = target: T2, Protein cereblon-BTK (Macaca fascicularis); assay: In vivo protac activity at CRBN/BTK in cynomolgus monkey assessed as remaining BTK protein in B cells at 10 to 100 mg/kg,po administration for 14 days by flow cytomtery relative to control; format: functional, organism-based; conditions: dose 10-100 mg/kg, time 14.0 day
[14] = Plasma protein binding in dog; format: ADME, cell-free, Canis lupus familiaris; conditions: read-out: PPB (converted)
[15] = target: T1, Protein cereblon/Tyrosine-protein kinase BTK (Mus musculus); assay: In vivo protac activity at CRBN/BTK in BALB/c mouse assessed as residual BTK protein in blood at 0.3 mg/kg,po administration measured after 24 hrs by flow cytomtery relative to control
Cytochrome P450 2C19 = Cytochrome P450 2C19 (Homo sapiens, UniProt P33261); assay: Inhibition of CYP2C19 (unknown origin); format: ADME
Chain of Cytochrome P450 2C19 (P33261 whole entry): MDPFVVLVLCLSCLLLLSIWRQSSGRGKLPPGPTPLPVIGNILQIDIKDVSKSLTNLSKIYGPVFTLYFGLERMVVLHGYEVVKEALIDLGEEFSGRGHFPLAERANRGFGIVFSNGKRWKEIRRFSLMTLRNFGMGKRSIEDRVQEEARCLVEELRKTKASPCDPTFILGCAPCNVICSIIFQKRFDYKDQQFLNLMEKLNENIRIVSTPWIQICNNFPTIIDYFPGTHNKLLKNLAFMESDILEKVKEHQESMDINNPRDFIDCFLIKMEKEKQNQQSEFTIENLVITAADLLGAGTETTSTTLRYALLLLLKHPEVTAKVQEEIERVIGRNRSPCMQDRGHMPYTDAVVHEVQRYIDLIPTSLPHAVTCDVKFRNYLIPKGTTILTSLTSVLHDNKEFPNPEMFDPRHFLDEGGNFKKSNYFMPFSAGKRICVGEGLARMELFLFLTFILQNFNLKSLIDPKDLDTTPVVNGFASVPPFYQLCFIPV

[16] = target: T3, Protein cereblon/Zinc finger protein Aiolos (Macaca fascicularis) (UniProt A0A2K5UTB3+A0A2K5VJM3); assay: In vivo protac activity at CRBN/IKZF3 in cynomolgus monkey assessed as degradation of IKZF3 protein at 100 mg/kg,po administration for 14 days by flow cytomtery relative to control; format: functional, organism-based; conditions: time 14.0 day
T3 sequence (A0A2K5UTB3 1-488): as the sequence (A0A2K5UTB3 1-488) above
T3 sequence (A0A2K5VJM3 entry or part of it partner): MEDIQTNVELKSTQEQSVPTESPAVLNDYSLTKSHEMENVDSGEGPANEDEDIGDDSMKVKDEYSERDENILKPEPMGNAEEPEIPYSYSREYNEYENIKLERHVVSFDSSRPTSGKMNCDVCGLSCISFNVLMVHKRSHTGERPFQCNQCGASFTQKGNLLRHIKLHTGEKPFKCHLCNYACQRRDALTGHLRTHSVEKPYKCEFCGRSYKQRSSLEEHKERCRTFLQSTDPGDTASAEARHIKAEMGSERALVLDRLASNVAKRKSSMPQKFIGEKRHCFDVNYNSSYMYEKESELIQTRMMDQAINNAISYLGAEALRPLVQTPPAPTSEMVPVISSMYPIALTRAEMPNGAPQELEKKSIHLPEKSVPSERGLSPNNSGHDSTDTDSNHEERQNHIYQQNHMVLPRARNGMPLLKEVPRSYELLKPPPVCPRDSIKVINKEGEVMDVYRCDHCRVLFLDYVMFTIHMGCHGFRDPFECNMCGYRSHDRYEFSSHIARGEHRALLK

[17] = AUC in cynomolgus monkey at 10 mg/kg,po; format: ADME, organism-based, Macaca fascicularis; design: dose 10 mg/kg, route po; conditions: in vivo
Cereblon/Ikaros [18] = target: T4, Cereblon/Ikaros (Homo sapiens, UniProt Q96SW2+Q13422); assay: In vivo protac activity at CRBN/IKZF1 in CB17-SCID mouse xenografted with human TMD8 cells assessed as degradation of IKZF1 protein in tumor at 10 to 90 mg/kg,po administration for 25 days by flow cytomtery; format: functional, organism-based; conditions: dose 10-90 mg/kg, time 25.0 day
[19] = target: Tyrosine-protein kinase BTK (Homo sapiens, UniProt Q06187); assay: Binding affinity to BTK (unknown origin) assessed as dissociation constant by surface plasmon resonance assay
TMD8 [20] = assay: Antitumor activity against human TMD8 cells expressing BTK C481S mutant xenografted in CB17-SCID mouse assessed as tumor growth inhibition at 10 mg/kg,po administration for 25 days; format: functional; conditions: TMD8, 600 h, time 25 day, read-out: TGI
[21] = AUClast in cynomolgus monkey at 10 mg/kg,po administration for 14 days; format: ADME, organism-based, Macaca fascicularis; design: time 14 day, dose 10 mg/kg, route po; conditions: in vivo
[22] = target: Protein cereblon/Tyrosine-protein kinase BTK (Homo sapiens, UniProt Q06187+Q96SW2); assay: PROTAC activity at CRBN/BTK in human PBMC cells asessed as degradation of BTK protein at 50 nM incubated for 4 hrs by proteomics assay based LC-MS/MS analysis; format: cell-based
Chain of Protein cereblon/Tyrosine-protein kinase BTK (Q06187 2-659 limits assumed): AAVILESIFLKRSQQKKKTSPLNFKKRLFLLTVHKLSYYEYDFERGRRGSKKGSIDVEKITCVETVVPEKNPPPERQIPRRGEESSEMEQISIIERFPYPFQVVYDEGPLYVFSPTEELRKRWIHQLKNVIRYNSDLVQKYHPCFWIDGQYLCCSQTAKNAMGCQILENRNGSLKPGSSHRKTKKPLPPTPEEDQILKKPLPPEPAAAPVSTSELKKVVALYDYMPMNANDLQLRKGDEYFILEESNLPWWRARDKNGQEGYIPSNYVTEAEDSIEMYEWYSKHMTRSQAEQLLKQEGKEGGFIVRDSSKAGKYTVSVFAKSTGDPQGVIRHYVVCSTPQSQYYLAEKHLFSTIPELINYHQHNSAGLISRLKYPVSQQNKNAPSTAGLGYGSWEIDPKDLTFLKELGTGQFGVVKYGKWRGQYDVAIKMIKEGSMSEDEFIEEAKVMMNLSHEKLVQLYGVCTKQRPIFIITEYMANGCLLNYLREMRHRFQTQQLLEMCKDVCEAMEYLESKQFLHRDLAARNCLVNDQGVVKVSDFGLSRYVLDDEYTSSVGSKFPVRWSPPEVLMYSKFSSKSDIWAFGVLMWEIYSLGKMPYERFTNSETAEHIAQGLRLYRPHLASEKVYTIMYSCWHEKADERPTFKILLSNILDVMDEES
Chain of Protein cereblon/Tyrosine-protein kinase BTK (Q96SW2 whole entry partner): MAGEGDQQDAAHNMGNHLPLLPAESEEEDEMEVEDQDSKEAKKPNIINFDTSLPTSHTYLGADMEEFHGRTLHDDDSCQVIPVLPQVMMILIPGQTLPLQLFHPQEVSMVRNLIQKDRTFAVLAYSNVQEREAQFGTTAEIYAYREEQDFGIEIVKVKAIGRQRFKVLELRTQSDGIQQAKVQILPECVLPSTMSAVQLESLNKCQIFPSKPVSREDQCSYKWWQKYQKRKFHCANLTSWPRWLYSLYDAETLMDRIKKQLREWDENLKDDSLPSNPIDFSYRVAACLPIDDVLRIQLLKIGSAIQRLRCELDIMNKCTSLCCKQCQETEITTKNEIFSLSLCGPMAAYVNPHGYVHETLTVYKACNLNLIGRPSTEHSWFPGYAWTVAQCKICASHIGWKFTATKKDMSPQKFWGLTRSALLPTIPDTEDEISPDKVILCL

Cereblon/Ikaros [23] = target: T4, Cereblon/Ikaros; assay: PROTAC activity at CRBN/IKZF1 in human T cell assessed as degradation of IKZF1 protein incubated for 24 hrs by flow cytometry; format: cell-based
[24] = Plasma protein binding in mouse; format: ADME, cell-free; conditions: read-out: PPB
[25] = target: T1, Protein cereblon/Tyrosine-protein kinase BTK (Mus musculus); assay: In vivo protac activity at CRBN/BTK in CD-1 mouse assessed as remaining BTK protein in blood at 30 mg/kg,po administration measured after 24 hrs by flow cytomtery relative to control; format: functional, organism-based
[26] = target: T3, Protein cereblon/Zinc finger protein Aiolos (Macaca fascicularis); assay: In vivo protac activity at CRBN/IKZF3 in cynomolgus monkey assessed as degradation of IKZF3 protein at 10 to 100 mg/kg,po administration by flow cytomtery; format: functional, organism-based; conditions: dose 10-100 mg/kg
[27] = target: T3, Protein cereblon/Zinc finger protein Aiolos (Macaca fascicularis); assay: In vivo protac activity at CRBN/IKZF3 in cynomolgus monkey assessed as degradation of IKZF3 protein at po administration measured after 24 hrs by flow cytomtery; format: functional, organism-based
[28] = target: Voltage-gated inwardly rectifying potassium channel KCNH2 (Homo sapiens, UniProt Q12809); assay: Inhibition of human ERG; format: toxicity
T-cell = assay: Activation of T-cellular function in anti-CD3/anti-CD28 activated human T cell assessed as increase in IL-2 secretion at 0.001 to 100 nM incubated for 24 hrs followed by anti-CD3/anti-CD28 stimulation by ELISA; format: functional, cell-based; conditions: dose 0.001-100 nM
TMD8 [29] = assay: Antitumor activity against human TMD8 cells expressing wild type BTK xenografted in CB17-SCID mouse assessed as tumor growth inhibition at 90 mg/kg,po administration for 25 days; format: functional; conditions: TMD8, 600 h, time 25 day, read-out: TGI
[30] = Plasma protein binding in human; format: ADME, cell-free; conditions: read-out: PPB (converted)
[31] = Oral bioavailability in dog at 10 mg/kg; format: ADME, organism-based, Canis lupus familiaris; conditions: in vivo

T1 sequence (P35991 whole entry, looked up): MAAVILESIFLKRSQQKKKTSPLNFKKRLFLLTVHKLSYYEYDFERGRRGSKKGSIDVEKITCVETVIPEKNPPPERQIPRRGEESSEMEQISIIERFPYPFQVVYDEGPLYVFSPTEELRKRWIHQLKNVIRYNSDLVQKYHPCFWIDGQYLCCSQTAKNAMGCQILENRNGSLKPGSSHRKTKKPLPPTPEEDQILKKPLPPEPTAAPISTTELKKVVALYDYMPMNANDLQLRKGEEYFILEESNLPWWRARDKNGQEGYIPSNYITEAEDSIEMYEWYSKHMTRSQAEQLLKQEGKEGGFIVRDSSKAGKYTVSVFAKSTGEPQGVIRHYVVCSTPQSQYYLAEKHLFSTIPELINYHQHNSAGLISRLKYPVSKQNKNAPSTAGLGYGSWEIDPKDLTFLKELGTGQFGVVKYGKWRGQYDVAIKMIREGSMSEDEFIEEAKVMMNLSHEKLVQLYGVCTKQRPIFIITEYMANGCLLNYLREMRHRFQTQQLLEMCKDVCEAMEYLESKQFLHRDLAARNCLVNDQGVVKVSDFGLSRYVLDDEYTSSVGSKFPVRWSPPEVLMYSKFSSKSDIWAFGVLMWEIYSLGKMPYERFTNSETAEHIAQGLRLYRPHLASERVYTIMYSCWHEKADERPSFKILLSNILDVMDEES
T1 sequence (Q8C7D2 whole entry, looked up): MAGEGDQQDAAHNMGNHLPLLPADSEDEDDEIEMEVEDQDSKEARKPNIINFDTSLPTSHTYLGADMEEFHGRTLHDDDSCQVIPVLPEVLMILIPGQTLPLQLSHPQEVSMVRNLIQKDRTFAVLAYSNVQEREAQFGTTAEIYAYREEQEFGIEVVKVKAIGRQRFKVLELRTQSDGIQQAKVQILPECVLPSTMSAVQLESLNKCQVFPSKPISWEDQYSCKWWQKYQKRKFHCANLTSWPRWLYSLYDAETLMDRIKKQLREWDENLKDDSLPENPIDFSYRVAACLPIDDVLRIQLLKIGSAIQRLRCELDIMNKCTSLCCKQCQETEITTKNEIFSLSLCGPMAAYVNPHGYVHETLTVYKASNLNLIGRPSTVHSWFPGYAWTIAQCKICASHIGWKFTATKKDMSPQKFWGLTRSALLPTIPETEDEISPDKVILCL

In the case of `NC(=O)c1ncc(N2CCCCC2)nc1Nc1ccc(C2CCN(C[C@H]3CCN(c4ccc5c(c4)C(=O)N(C4CCC(=O)NC4=O)C5=O)C3)CC2)cc1` (some centres undefined) [ZELEBRUDOMIDE], the residual activity [1] is reported as 21%, the residual activity [2] is reported as 12% and the TDI (Cytochrome P450 3A4) is reported as “Not Active”. For the same compound, the inhibition in vivo at 90 mg/kg (TMD8 [3]) was 59%, the Drug uptake [4] was “Dose-Dependent Effect” and the Activity [5] was “Active”. It also gave an Activity [6] of 10%, a fraction unbound [7] of less than 0.015 and a Cmax [8] of 25.4 ng/mL. For the same compound, the inhibition in vivo at 30 mg/kg (TMD8 [9]) was 73%, the Cmax [10] was 11 nM and the Activity [11] was 17%. The fraction unbound [12] was 0.046, the Activity [13] was less than 10% and the fraction unbound [14] was 0.025. It also gave a residual activity [15] of 81%, an IC50 (Cytochrome P450 2C19) greater than 30000 nM and an Activity [16] of 43%. The AUC [17] was 0.09 µM·h, the Activity (Cereblon/Ikaros [18]) was “Active” and the Kd [19] was 45 nM. The inhibition in vivo at 10 mg/kg (TMD8 [20]) was 17%, the AUC(0-t) at 336 h [21] was 366 ng·h/mL and the Activity [22] was “Active”. It also gave a DC50 (Cereblon/Ikaros [23]) of 57 nM, a fraction unbound [24] of less than 0.015 and an Activity [25] of 11%. For the same compound, the Activity [26] was “inactive”, the Activity [27] was “Dose-Dependent Effect” and the IC50 [28] was greater than 30000 nM. The Activity (T-cell) was “Active”, the inhibition in vivo at 90 mg/kg (TMD8 [29]) was 99% and the fraction unbound [30] was 0.063. It also gave a bioavailability [31] of 1%.
